Measured values: patent publication US20240417428A1, “POLYPEPTIDE FOR INHIBITING TRPM8 AND USE THEREOF” (ZHEJIANG UNIVERSITY, priority 2021, published 2024)
“Also recorded” adds a separate entry of the source. Where a SMILES comes first, the peptide text is derived from it.

Legend:
TRPM8 = TRPM8 (Mus musculus, UniProt Q8R4D5); assay: Calcium imaging of primary cultured DRG neurons from oxaliplatin-treated mice; type: cell-based; design: endogenous in cells; host or cells: primary cultured dorsal root ganglion neurons from saline- or oxaliplatin-treated mice; settings: 10 μM DeC-1.2, DRG neurons of oxaliplatin treated mice
TRPM8, sequence (Q8R4D5 whole entry): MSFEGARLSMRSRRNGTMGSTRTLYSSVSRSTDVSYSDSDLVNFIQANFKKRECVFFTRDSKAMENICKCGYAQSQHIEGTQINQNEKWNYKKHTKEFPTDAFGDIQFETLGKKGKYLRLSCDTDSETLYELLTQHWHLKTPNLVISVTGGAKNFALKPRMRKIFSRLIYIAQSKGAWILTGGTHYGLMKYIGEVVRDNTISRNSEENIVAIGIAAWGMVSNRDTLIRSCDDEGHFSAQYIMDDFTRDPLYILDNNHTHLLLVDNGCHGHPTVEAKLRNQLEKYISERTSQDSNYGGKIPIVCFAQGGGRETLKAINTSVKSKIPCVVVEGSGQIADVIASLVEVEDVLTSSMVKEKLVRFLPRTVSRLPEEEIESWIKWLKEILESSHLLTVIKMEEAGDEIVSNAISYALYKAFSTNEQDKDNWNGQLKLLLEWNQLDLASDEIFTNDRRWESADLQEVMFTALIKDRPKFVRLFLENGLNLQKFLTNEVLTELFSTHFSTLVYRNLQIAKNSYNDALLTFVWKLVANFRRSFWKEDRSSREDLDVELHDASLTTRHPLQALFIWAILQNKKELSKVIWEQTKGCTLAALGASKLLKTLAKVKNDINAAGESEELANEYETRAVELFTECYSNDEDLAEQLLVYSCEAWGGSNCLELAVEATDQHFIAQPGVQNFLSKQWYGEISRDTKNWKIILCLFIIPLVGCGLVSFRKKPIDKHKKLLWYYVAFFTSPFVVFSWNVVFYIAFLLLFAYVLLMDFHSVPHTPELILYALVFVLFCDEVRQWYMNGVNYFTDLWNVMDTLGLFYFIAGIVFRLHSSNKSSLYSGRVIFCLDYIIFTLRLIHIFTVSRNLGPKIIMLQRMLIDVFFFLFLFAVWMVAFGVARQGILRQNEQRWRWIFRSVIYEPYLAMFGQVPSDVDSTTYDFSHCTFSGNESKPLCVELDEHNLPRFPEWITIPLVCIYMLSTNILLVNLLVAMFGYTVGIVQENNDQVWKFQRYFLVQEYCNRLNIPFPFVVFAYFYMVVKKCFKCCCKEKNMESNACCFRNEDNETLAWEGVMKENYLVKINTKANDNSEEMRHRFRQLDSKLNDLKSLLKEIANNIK
Procedure: Mice was deeply anaesthetized, decapitated and blood was removed, DRG tissue was dissected off quickly and placed in ice-cold PBS solution. After washing the blood, digestive enzyme (Collagenase A 20 mg/100 ml, Dispase II 300 mg/100 ml dissolved in PBS) was added and DRG was digested at 37° C. for 1 hour. The samples were centrifuged at 500 g for 5 min and the digested tissue was collected. When the enzyme solution was removed, an appropriate amount of DMEM medium (containing 10% FBS, 1× Pen/Strep) was added, and the single cell suspension was prepared by mechanical trituration. The samples were centrifuged at 500 g for 10 min. […]
The primary-cultured DRG neurons were washed with a extracellular solution (ECS, 140 mM NaCl, 5 mM KCl, 1 mM MgCl2, 1.8 mM CaCl2), 10 mM Glucose, 15 mM HEPES, pH=7.4) then incubated in calcium dye incubation solution (2 μM […], 0.05% Pluronic F-127 in ECS) for 30 min. The cell images were continuously and alternately excited by a high-speed continuous monochromatic light source under the excitation wavelength of 340 nm and 380 nm, and recorded in full vision under 20× object lens by Visiview software Intracellular fluorescence intensity changes were continuously recorded at 0.5 fps via a high-speed scanning camera Flash4.0LT. The ratio of fluorescence signal at 340 nm/380 nm represents the intensity of calcium signal. […]

[1] = tested on: oxaliplatin-induced mechanical allodynia; assay: Oxaliplatin-induced mechanical allodynia, von Frey test; type: in vivo, mice; settings: 3.5 μg/20 μl i.pl., day 10 after oxaliplatin, compared to saline
Procedure: (§1) Adult male CD1 mice (6-8 weeks old) were used as experimental animals for behavioral experiments and primary cultures of DRG neurons. Mice were raised in the condition of 12 h light/12 h dark of light cycle with adequate standard chow and water. All animal protocols were approved by the Institutional Animal Care and Use Committee (IACUC) of Zhejiang University.
All of mice were habituated to the behavioral testing environment for 1-to-2 hours in 2-to-3 days before the behavioral testing. Single intraperitoneal (i.p.) injection of oxaliplatin (6 mg/kg body weight) was given to generate chemotherapy-induced neuropathic pain. Neuropathic pain behaviors were tested about 10 days after oxaliplatin injection.
Mechanical allodynia was assessed by measuring paw withdrawal thresholds in von Frey test. The paw withdrawal thresholds of mice in the von Frey test were tested according to Dixon'sup-down method. […] The vonFrey hairs with different stiffness were selected in turn to simulate, with 5 s interval per two simulations, and total six simulations were completed, the paw withdrawal thresholds (PWT) of mice were assessed according to the responding amount table The von Frey test was respectively performed on day 10 pre- or post-treatment with Oxaliplatin, saline or 3.5 μg/20 μL DeC-1.2 was intraplantarly injected to assess its analgesic effect on oxaliplatin-induced allodynia.

[2] = tested on: Icilin-induced wet-dog shake behavior; assay: Icilin-induced wet-dog shake test; type: in vivo, mice
Procedure: as §1
At least 6 adult male CD1 mice were prepared for experimental or control groups. The animals were pretreated with Vehicle or DeC-1.2 of gradient dose via intravenous injection (i.v.) at 30 min before icilin (intraperitoneal injection, i.p., 2.5 μg/g body weight) treatment. Wet dog shake behavior was recorded and counted for 30 min following icilin administration.

C[C@@H]1NC(=O)[C@H](CCCNC(=N)N)NC(=O)[C@H](CC(=O)O)NC(=O)[C@H](CCCNC(=N)N)NC(=O)[C@H](CCCNC(=N)N)NC(=O)[C@@H](N)CSSC[C@@H](C(=O)O)NC(=O)[C@H](CCCNC(=N)N)NC(=O)[C@H](CCC(N)=O)NC(=O)[C@H](CCCNC(=N)N)NC(=O)[C@H](Cc2ccc(O)cc2)NC(=O)[C@H](Cc2c[nH]cn2)NC(=O)[C@H](CCCNC(=N)N)NC1=O [DeC-1.2, CRRDRARHYRQRC] (HELM PEPTIDE1{C.R.R.D.R.A.R.H.Y.R.Q.R.C}$PEPTIDE1,PEPTIDE1,1:R3-13:R3$$$V2.0; N-terminus and C-terminus assumed)
amplitude of calcium influx induced by menthol (TRPM8): significantly inhibit | percentage of positive reaction cells in response to menthol (TRPM8): significantly inhibit | paw withdrawal threshold in von Frey test [1]: did not change paw withdrawal threshold | inhibition of WSD behaviors induced by icilin ([2]; 0.3 μg/g body weight i.v., 30 min before icilin): significantly inhibit | reduction of WDS behavior in icilin treated mice ([2]; 30 μg/g body weight i.v.): largely reduce WDS behavior | dose dependence of inhibition of icilin-induced wet-dog shakes ([2]; gradient dose i.v.): dose-dependently significantly reduces; also recorded: significantly dose-dependent
